Assay results taken from patent publication US20150224061A1, “NANOCONSTRUCTS WITH PHARMACOLOGICAL ACTIVITY” (UNIVERSITA' DEGLI STUDI DI MILANO - BICOCCA, priority 2012, published 2015).
Read-outs that look alike come from different tables or passages of the source. Where no end group is shown, it is not given here.

Experiments:
[1] = system: transduction signal pathway of NFAT; test: IL-2 production (ELISA) by LPS-stimulated DCs derived from bone marrow, marker of NFAT pathway; format: cell-based, mouse; conditions: 18 hours; for inhibition of NFAT activity (IL-2 release, ELISA): peptide 25 uM pretreatment, LPS 100 ng/ml
Procedure: (§1) FIG. 2. Inhibition of the transduction of the NFAT signals by means of the MYTS-VIVIT nanoconstructs in DCs derived from bone marrow. The DCs were pre-treated, or not, with the indicated quantities of MYTS-VIVIT for two hours and then activated with LPS for 18 hours. The quantities of IL-2 and TNFα in the supernatant were measured using the ELISA method.
(§2) In order to assess whether nanoconstructs are able to inhibit the transduction signal pathway of NFAT, the following experiments were carried out in vitro. After exposure to LPS, the DCs derived from bone marrow were able to produce various inflammatory cytokines, including IL-2 and TNFα. IL-2 was strictly NFAT-dependent, whereas the production of TNFα was NF-kB-dependent and NFAT-independent. IL-2 and TNFα are therefore valid markers respectively of the activation pathway of NFAT and NF-kB. After two hours of pretreatment with the nanoconstructs obtained as described in example 1, the DCs derived from bone marrow were stimulated with LPS and the quantity of released cytokines was measured using the ELISA method 18 hours later.
(§3) DCs produce IL-2 in an NFAT-dependent manner if stimulated with LPS. To assess the efficacy of the VIVIT peptide, DCs derived from bone marrow were transduced with a sequence coding the VIVIT peptide fused with the GFP protein through use of a retroviral vector.
Since DCs are phagocyte cells, we firstly used the non-modified peptide, assuming that this could reach the cell cytosol once entered into the endosomal compartment. We then carried out co-cultures of DCs with the VIVIT peptide, and the inhibition of NFAT was analyzed by measuring the production of IL-2 following stimulation with LPS. […] A modified VIVIT peptide was then assessed, to which a […] 11-arginine tail had been attached. It has, in fact, been described in the literature that this modification can allow entry into the cells.

NF-kB = test: TNFα production (ELISA) by LPS-stimulated DCs derived from bone marrow, marker of NF-kB pathway; format: cell-based, mouse; conditions: 2 h pretreatment, then LPS, 18 hours
Procedure: as §1, §2, §3

[2] = system: transduction signal pathway of NFAT; test: GFP+ Ly6G+ spleen neutrophils in IL-2/GFP mutant mice after LPS; format: in vivo, mouse; conditions: i.v. two hours before LPS injection
Procedure: FIG. 3. The NFAT pathway is active in the neutrophils. Mice genetically modified by IL-2/GFP were treated, or not, with MYTS-VIVIT and were then injected intravenously two hours after with LPS. The bars represent the percentage of GFP+Ly6G^+ spleen neutrophils […] after the treatment with LPS. In this mouse model, GFP was inserted in the second exon of IL-2 and therefore has the same regulation of IL-2.
Mutant mice (obtained from laboratories of Ronald H. Schwartz, NIH Bethesda) were used for this experiment. In this mouse model, the GFP protein was inserted into the second exon of the gene IL-2, and therefore had the same regulation of IL-2. As mentioned before, IL-2 is a marker of NFAT activation. If the mice genetically modified with regard to IL-2/GFP are treated with LPS, a significant percentage of GFP+ neutrophils (Ly6G+ cells) can be measured in the spleen two hours after treatment. To verify whether the nanoconstructs of the present invention are able to inhibit the signal pathway of NFAT in vivo, mutant mice were injected endovenously with the nanoconstructs as prepared in example 1 two hours before the injection of LPS.

[3] = system: NFAT-dependent edema induced by LPS; test: LPS-induced paw edema model; format: in vivo, mouse; conditions: subcutaneous pretreatment 2 hours prior to LPS in the paw
Procedure: FIG. 4. Inhibition of the NFAT pathway in the formation of edema of the paw in response to LPS. The animals were pretreated, or not, with the nanoconstructs (MYTS-VIVIT) or FK-506 (approximately 2 h) and were then treated locally with LPS.
To assess whether the nanoparticles of the present invention are able to inhibit in vivo the formation of LPS-induced edema, the mice were pretreated, or not, with the nanoconstructs of example 1 or FK506 as control sub-cutaneously for 2 hours prior to the injection of LPS in the paw.

inflammatory arthritis = test: Arthritis induced by anti-collagen antibodies/LPS; format: in vivo, C57BL6 mice; conditions: treated on days −1, 0, +1, +3, +6, +9, +12
Procedure: FIG. 5. Inhibition of the development of arthritis. FIG. 5A: the mice were treated endovenously, or were not treated, at −1, 0, +1, +3, +6, +9, and +12 days with the nanoconstructs (MYTS-VIVIT) or with nanoconjugates MYTS-VEET (a peptide similar to VIVIT in which the sequence has been modified, thus losing specificity for Cn). Day 0 represents the start of the procedure of inducing arthritis. The clinical points indicative of the severity of the arthritis were assessed on the days indicated. In FIG. 5B, photographs showing arthritis on the seventh day in a treated mouse and in an untreated mouse are shown.
Rheumatoid arthritis (AR) is a chronic, debilitating systemic autoimmune disease characterized by an immunological inflammatory reaction of the mesenchymal tissue and of the synovial fluid accompanied by polyarticular synovitis. Over time, it leads to the progressive destruction of the articular and periarticular structures. […] To verify whether the nanoconstructs of the present invention are able to inhibit the development of inflammatory arthritis, a model of arthritis induced by anti-collagen antibody of the IL/LPS type was used. In particular, six C57BL6 mice were treated on days −1, 0, +1, +3, +6, +9, +12 with the nanoconstructs of example 1.

[4] = system: skin transplant rejection; test: Skin transplant rejection model (male skin into female mice); format: in vivo, mouse
Procedure: FIG. 6. Inhibition of skin transplant rejection. Male skin was grafted in female mice. The mice were then injected endovenously, or not, with the nanoconstructs (MYTS-VIVIT or MYTS-VEET) on days −1, 0, +1, +3, +6, +9, +12, and +15. In addition, the mice were then left without treatment for a further 20 days. The boxes M in M represent the untreated controls and show the skin transplant from male mouse to male mouse. […] The boxes M in F represent the skin transplant from male mouse to female mouse without treatment with the nanoconstructs. The scar of the rejection is clearly visible on day 30. The rejection can also be seen in boxes M in F (male into female) treated with the control MYTS-VEET nanoconstructs. Vice versa, in the boxes representing the transplant from male to female with MYTS-VIVIT treatment (M in F+MYTS-VIVIT), the acceptance of the graft is clearly visible. The bar chart beneath represents a quantification of the results of the experiment. To summarize, the transplant was accepted in 80% of cases treated with the MYTS-VIVIT nanoconstructs, whereas it was rejected in 100% of untreated cases and in 80% of cases treated with the control MYTS-VEET nanoconstruct.
To verify whether the nanoconstructs of the present invention are able to inhibit transplant rejection, a skin transplant model was used. […]

neurons = conditions: i.v., 1 hour, magnet applied to the skull
Procedure: Then, a staining of the neurons was carried out with the fluorescent probe NeuroTrace (which stains the substance Nissi, which is abundant in neuronal cells and is formed from ribosomal RNA associated with the endoplasmic reticulum).

NFAT = conditions: cited from earlier work
[5] = system: NF-kB transcription factor; conditions: cited from earlier work
calcineurin (Cn) = conditions: cited from earlier work

MYTS-VIVIT (H-CGGGKMAGPVIVITGPHEE-OH; not fully specified; printed as NH2—CGGGKMAGPVIVITGPHEE-COOH)
IL-2 released (ELISA) ([1]; 2 h pretreatment, then LPS): completely block IL-2 | TNFα released (ELISA) (NF-kB): not the production of TNFα | percentage of GFP+ Ly6G+ spleen neutrophils [2]: strong impact on the ability of the neutrophils to produce GFP | formation of LPS-induced paw edema [3]: significantly inhibited | development of arthritis (clinical points) (inflammatory arthritis): inhibit the development of arthritis very effectively | skin transplants accepted ([4]; i.v. treatment from day −1, after four weeks / day 30): 80% | skin transplants accepted ([4]; i.v. treatment from day −1, after four weeks / day 30, listed as nanoconstructs bearing the VIVIT peptide): 90%

NH2—CGGGKMAGPVIVITGPHEE-COOH (H-CGGGKMAGPVIVITGPHEE-OH; listed as Homo sapiens)
inhibition of NFAT activity (IL-2 release, ELISA) [1]: unable to penetrate into the cytosol of the DCs and to block the activity of NFATs | inhibition of NFAT activity (IL-2 release, ELISA) ([1]; listed as free, non-modified VIVIT peptide): did not make it possible to interfere with the activity of NFAT

enfuvirtide
accumulation of AF660-labeled drug in neurons (confocal microscopy) (neurons; listed as free enfuvirtide): only in the case of the drug conjugated to the MYTS nanoparticles | accumulation of AF660-labeled drug in neurons (confocal microscopy) (neurons; listed as labeled drug not conjugated to the nanoparticles): traces of fluorescence cannot be seen

peptide with an 11-arginine tail: peptide with sequence SEQ ID NO:1 conjugated with an 11-arginine tail (CGGGKMAGPVIVITGPHEE; also: 11-arginine tail conjugated, end not given here; listed as Homo sapiens)
inhibition of NFAT activity (IL-2 release, ELISA) [1]: unable to penetrate into the cytosol of the DCs and to block the activity of NFATs | inhibition of NFAT activity (IL-2 release, ELISA) ([1]; listed as modified VIVIT peptide): not possible to observe any inhibition of the NFAT pathway

Val-Ile-Val-Ile-Thr [VIVIT]
inhibition of NFAT (gene reporter) (NFAT): effectively inhibits NFAT and its activity | inhibition of NF-kB (gene reporter) [5]: not the activity of the NF-kB transcription factor | affinity for Cn (calcineurin (Cn)): increased affinity for Cn
